Patent publication US20050250748A1, “Combination therapy of angiotensin converting enzyme inhibitor and eplerenone for treatment of cardiovascular disease” (G. D. Searle & Co., priority 1999, published 2005)
≈ marks a conversion by molar mass, not a printed value. Where two headings read alike, the source gives them in different places.

Assays:
[1] = tested on: patients with severe HF (NYHA Class IV); conditions: enalapril plus diuretics compared to placebo plus diuretics; cited from earlier work
[2] = tested on: patients with LV dysfunction 2 to 6 days following MI; conditions: cited from earlier work
[3] = at lower temperatures (below the enantiotropic transition temperature)
[4] = tested on: patients with myocardial infarction; conditions: patients with myocardial infarction receiving zofenopril; cited from earlier work
hypertensive patients = conditions: despite continued ACE inhibition; cited from earlier work
[5] = tested on: patients with clinical evidence of HF at any time after an AMI; conditions: cited from earlier work; for risk reduction in all cause mortality compared to placebo: p=0.002
[6] = tested on: patients with impaired ejection fraction post AMI; conditions: cited from earlier work
[7] = tested on: patients alive at Day 3 with Killip class >I; conditions: patients randomized to lisinopril; ACE-I treatment stopped at 42 days, more than 50% continued long-term; cited from earlier work
[8] = solubility of eplerenone in crystallization solvents; format: physicochemical; conditions: organic solvent or mixture; room temperature; organic solvents used for crystallization
[9] = tested on: patients with stable NYHA Class II-IV heart failure; test: Biological Evaluation I: randomized, double-blind, placebo and active drug-controlled 12-week trial of eplerenone with ACE inhibitor and loop diuretic; conditions: for urinary aldosterone excretion, increase from baseline: 12 week visit; for plasma renin activity (PRA): drug therapy with ACE inhibitor and loop diuretic; for testosterone levels: in males
hypertensive-rat cohort = conditions: spironolactone subcutaneously; cited from earlier work
[10] = tested on: patients afflicted with congestive heart failure; conditions: coadministered with an ACE inhibitor; cited from earlier work
animal models = conditions: cited from earlier work
[11] = tested on: patients with severe HF (NYHA Class III or IV); conditions: cited from earlier work

In the case of `CCOC(=O)[C@H](CCc1ccccc1)N[C@@H](C)C(=O)N1CCC[C@H]1C(=O)O` [enalapril], the “mortality at one year reduced” value [1] is listed as 31%.
For `CCOC(=O)[C@H](CCc1ccccc1)N[C@@H](C)C(=O)N1[C@H](C(=O)O)C[C@H]2CCCC[C@@H]21` [trandolapril], the “first-year mortality rate in the active (ACE-I) arm” value ([2]; TRACE) is listed as 23%, the “relative reduction in the risk of death compared to placebo” value ([2]; p=0.001) is listed as 18% and the “reduction in the risk of progression to severe HF compared to placebo” value ([2]; p=0.003) is listed as 29%.
For `COC(=O)[C@@H]1CC2=CC(=O)CC[C@]2(C)[C@@]23O[C@@H]2C[C@@]2(C)[C@@H](CC[C@@]24CCC(=O)O4)[C@H]13` [Form L], the “physical stability relative to Form H” value [3] was “greater physical stability”.
For `C[C@H](CSC(=O)c1ccccc1)C(=O)N1C[C@@H](Sc2ccccc2)C[C@H]1C(=O)O` [zofenopril], the plasma aldosterone [4] is listed as “A similar effect”.
For `C[C@H](CS)C(=O)N1CCC[C@H]1C(=O)O` [captopril], the plasma aldosterone (hypertensive patients) is given as “gradual return of plasma aldosterone to baseline levels”.
In the case of `CCOC(=O)[C@H](CCc1ccccc1)N[C@@H](C)C(=O)N1[C@H](C(=O)O)C[C@@H]2CCC[C@@H]21` [ramipril], the “first-year mortality rate in the active (ACE-I) arm” value ([5]; AIRE) is listed as 16%, the “risk reduction in all cause mortality compared to placebo” value ([5]; AIRE) is listed as 27% and the “reduction in the risk of developing severe resistant HF compared to placebo” value ([5]; AIRE, p=0.017) is listed as 23%. For the same molecule, the “risk reduction in all cause mortality compared to placebo” value ([5]; AIREX long-term (three year) follow-up) was 36% and the “ventricular dilatation and decline of systolic dysfunction” value [6] was “prevented ventricular dilatation and further decline of systolic dysfunction”.
For `NCCCC[C@H](N[C@@H](CCc1ccccc1)C(=O)O)C(=O)N1CCC[C@H]1C(=O)O` [lisinopril], the first-year mortality [7] is given as 22%.
For `COC(=O)[C@@H]1CC2=CC(=O)CC[C@]2(C)[C@@]23O[C@@H]2C[C@@]2(C)[C@@H](CC[C@@]24CCC(=O)O4)[C@H]13` [eplerenone, Pregn-4-ene-7,21-dicarboxylic acid, 9,11-epoxy-17-hydroxy-3-oxo-, γ-lactone, methyl ester, (7^α, 11^α, 17^α)-], the solubility [8] was 5 to 200 mg/mL (≈ 12.1 to 483 mM), the “urinary aldosterone excretion, increase from baseline” value ([9]; 25 mg eplerenone QD, P>0.05) was “did not reach statistical significance” and the “plasma renin activity (PRA)” value [9] was “significantly elevated”. For the same molecule, the “reduction in BNP” value ([9]; eplerenone at 25 mg, all patients) was “highly significant”, the “reduction in BNP” value ([9]; eplerenone at 100 mg, all patients) was “highly significant” and the “urinary aldosterone excretion, increase from baseline” value ([9]; eplerenone dose of 50 mg) was “Greater increases”. For the same molecule, the “urinary aldosterone excretion, increase from baseline” value ([9]; eplerenone dose of 100 mg) was “Greater increases”, the testosterone levels [9] was “lack of effect” and the “reduction in BNP” value ([9]; patients with high baseline BNP levels) was “even greater”.
For `CC(=O)S[C@@H]1CC2=CC(=O)CC[C@]2(C)[C@H]2CC[C@@]3(C)[C@@H](CC[C@@]34CCC(=O)O4)[C@H]12` [spironolactone], the fibrosis (hypertensive-rat cohort) is listed as “prevent fibrosis”, the “patients in whom highly effective” value [10] is listed as 13 of 16 and the myocardial fibrosis (animal models) is listed as “prevents myocardial fibrosis”. For the same molecule, the myocardial fibrosis (animal models; listed as Spironolactone) was “prevent fibrosis in animal models irrespective of the development of left ventricular hypertrophy and the presence of hypertension”, the “plasma renin activity (PRA)” value [9] was “significantly elevated” and the testosterone levels [9] was “significant increase”. For the same molecule, the “ventricular dilatation and decline of systolic dysfunction” value [6] was “prevented ventricular dilatation and further decline of systolic dysfunction”, the “reduction in mortality compared to placebo” value ([11]; as restated in the sample size discussion) was greater than 30% and the “risk reduction for all cause mortality” value ([11]; spironolactone 25 mg daily added to standard therapy (ACE-I and loop diuretic, with or without digoxin) vs standard therapy plus placebo, p<0.001) was 30%. The “lower frequency of hospitalization for worsening HF than placebo patients” value ([11]; spironolactone 25 mg daily added to standard therapy) was 35% and the “median increase in serum potassium concentration compared to placebo” value ([11]; spironolactone added to standard therapy) was “statistically but not clinically significant”.
